The term IC50 denotes the concentration needed to halve the response being measured.

From US20250223284A1, “REVERSIBLE DPP1 INHIBITORS AND USES THEREOF” (Insmed Incorporated, priority 2023, published 2025) come the findings set out here.

mouse DPP1 enzyme, sequence (P97821 25-134): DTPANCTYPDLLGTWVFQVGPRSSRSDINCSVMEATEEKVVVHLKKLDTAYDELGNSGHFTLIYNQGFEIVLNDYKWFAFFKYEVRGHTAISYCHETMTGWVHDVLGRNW
mouse DPP1 enzyme, sequence (P97821 231-393): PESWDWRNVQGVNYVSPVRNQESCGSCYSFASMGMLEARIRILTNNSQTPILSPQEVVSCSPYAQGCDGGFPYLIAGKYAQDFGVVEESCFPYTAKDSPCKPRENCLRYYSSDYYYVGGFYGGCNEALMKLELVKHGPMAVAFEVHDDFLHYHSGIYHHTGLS
mouse DPP1 enzyme, sequence (P97821 394-462): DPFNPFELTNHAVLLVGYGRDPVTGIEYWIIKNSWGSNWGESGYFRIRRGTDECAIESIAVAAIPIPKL
human DPP1 enzyme, sequence (P53634 25-134): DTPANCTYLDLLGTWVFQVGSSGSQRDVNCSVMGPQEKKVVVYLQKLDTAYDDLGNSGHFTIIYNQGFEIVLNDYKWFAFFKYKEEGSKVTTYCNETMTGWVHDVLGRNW
human DPP1 enzyme, sequence (P53634 231-394): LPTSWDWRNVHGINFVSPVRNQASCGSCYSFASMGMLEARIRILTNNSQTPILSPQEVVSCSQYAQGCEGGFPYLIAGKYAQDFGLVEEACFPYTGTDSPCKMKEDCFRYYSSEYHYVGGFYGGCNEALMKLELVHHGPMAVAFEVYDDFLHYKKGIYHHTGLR
human DPP1 enzyme, sequence (P53634 395-463): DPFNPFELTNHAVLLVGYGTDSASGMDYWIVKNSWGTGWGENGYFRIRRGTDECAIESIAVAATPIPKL

The target in one assay is mouse DPP1 enzyme (Mus musculus (Mouse), UniProt P97821). As to the kind of experiment: Mouse DPP1 Enzyme IC50 Assay. It counts as biochemical. As to conditions: active mouse DPP1 enzyme, H-Gly-Arg-AMC substrate, 10 min pre-incubation at 37° C., MES pH 5.5. As for the experimental part:
Test articles were applied to active mouse DPP1 enzyme (R&D Systems; Minneapolis, MN) in Assay Buffer (50 mM MES pH 5.5, 50 mM NaCl, 5 mM DTT) in a total reaction volume of 125 μL. 25 μL of compound in Assay Buffer plus 5% DMSO was first added to 50 μL of active mouse DPP1 enzyme at a concentration of 62.5 pg/μL and allowed to pre-incubate for 10 minutes at 37° C. after which 50 μL of 1000 μM H-Gly-Arg-AMC substrate (Bachem; St. Torrance, CA) was added, giving final substrate concentration of 400 µM and a final DMSO concentration of 1%. Substrate cleavage was measured for 90 minutes at 37° C., with fluorescence at Excitation/Emission 350/450 nm measured every 5 minutes. DPP1 concentration was interpolated based on its activity relative to a standard curve of recombinant active mouse DPP1 enzyme. IC50 values for each compound were calculated via the XLFit (IDBS Version 5.3.1.3) Add-On to Microsoft Excel using the four parameter fit equation y=(A+((B−A)/(1+ ((C/x)^D)))), which appears as equation number 205 (4 Parameter Logistic Model or Sigmoidal Dose-Response Model) in XLFit. Default constraints were used for each Parameter. IC50 was defined as the compound concentration at which 50% of enzyme activity was inhibited when compared to the no-compound control.
`Cn1c(=O)oc2ccc(-c3ccc(C[C@@H](C#N)NC(=O)[C@@H]4CNC[C@@](C)(O)CO4)cc3)cc21` (relative stereo) [Compound 2-A, (2S,6R*)—N-[(1S)-1-cyano-2-[4-(3-methyl-2-oxo-2,3-dihydro-1,3-benzoxazol-5-yl)phenyl]ethyl]-6-hydroxy-6-methyl-1,4-oxazepane-2-carboxamide] showed a concentration for half-maximal inhibition (IC50) of 51.7 nM.

Turning to `CO[C@@]1(C)CNC[C@@H](C(=O)N[C@H](C#N)Cc2ccc(-c3ccc4oc(=O)n(C)c4c3)cc2)OC1` (relative stereo) [Compound 3-A, (2S,6S*)—N-[(1S)-1-cyano-2-[4-(3-methyl-2-oxo-2,3-dihydro-1,3-benzoxazol-5-yl)phenyl]ethyl]-6-methoxy-6-methyl-1,4-oxazepane-2-carboxamide], inhibition was half-maximal at 130 nM (IC50).

Consider `CO[C@]1(C)CNC[C@@H](C(=O)N[C@H](C#N)Cc2ccc(-c3ccc4oc(=O)n(C)c4c3)cc2)OC1` (relative stereo) [Compound 3-B, (2S,6R*)—N-[(1S)-1-cyano-2-[4-(3-methyl-2-oxo-2,3-dihydro-1,3-benzoxazol-5-yl)phenyl]ethyl]-6-methoxy-6-methyl-1,4-oxazepane-2-carboxamide], for which the half-maximal inhibitory concentration (IC50) is 251 nM.

As to `Cn1c(=O)oc2ccc(-c3ccc(C[C@@H](C#N)NC(=O)[C@H]4CCCCCNC4)cc3)cc21` (single isomer, unassigned), the midpoint of inhibition, the IC50, lay at 54 nM.

The compound `Cn1c(=O)oc2ccc(-c3ccc(C[C@@H](C#N)NC(=O)[C@@H]4CNCCCCO4)cc3)cc21` (single isomer, unassigned) [drawing 490] showed an IC50 of 41.4 ± 4.5 nM.

With `Cn1c(=O)oc2ccc(-c3ccc(C[C@@H](C#N)NC(=O)[C@@H]4CNC[C@](C)(O)CO4)cc3)cc21` (single isomer, unassigned) [drawing 491], the IC50 is 351 ± 223 nM.

Turning to `CC[C@@]1(O)CNC[C@@H](C(=O)N[C@H](C#N)Cc2ccc(-c3ccc4oc(=O)n(C)c4c3)cc2)OC1` (single isomer, unassigned) [drawing 492], half-maximal inhibition (IC50) was put at 36.9 nM.

With `CC[C@]1(O)CNC[C@@H](C(=O)N[C@H](C#N)Cc2ccc(-c3ccc4oc(=O)n(C)c4c3)cc2)OC1` (single isomer, unassigned) [drawing 493], the IC50 worked out at 4040 nM.

As for `CC(C)[C@]1(O)CNC[C@@H](C(=O)N[C@H](C#N)Cc2ccc(-c3ccc4oc(=O)n(C)c4c3)cc2)OC1` (single isomer, unassigned) [drawing 494], the IC50 is greater than 5000 nM.

In turn, `Cn1c(=O)oc2ccc(-c3ccc(C[C@@H](C#N)NC(=O)[C@@H]4CNCC5(CCO5)CO4)cc3)cc21` (single isomer, unassigned) [drawing 495] yielded a half-inhibitory concentration (IC50) of 4.2 ± 0.8 nM.

The compound `Cn1c(=O)oc2ccc(-c3ccc(C[C@@H](C#N)NC(=O)[C@@H]4CNC[C@@]5(CCO5)CO4)cc3)cc21` (single isomer, unassigned) [drawing 496] displayed an IC50 of 2.36 ± 0.3 nM.

With `Cn1c(=O)oc2ccc(-c3ccc(C[C@@H](C#N)NC(=O)[C@@H]4CNCCCCO4)cc3)cc21` (single isomer, unassigned) [drawing 497], half-maximal inhibition (IC50) required 33.9 ± 4 nM.

`CN1CC2(C1)OC(=O)c1ccc(-c3ccc(C[C@@H](C#N)NC(=O)[C@@H]4CNCCCCO4)cc3)cc12` (single isomer, unassigned) [drawing 498] registered a 50% inhibitory concentration (IC50) of 17.8 ± 2 nM.

On to `CCO[C@@H]1CCNC[C@@H](C(=O)N[C@H](C#N)Cc2ccc(-c3ccc4oc(=O)n(C)c4c3)cc2)OC1` (single isomer, unassigned) [drawing 499], for which the IC50 was found to be 6.05 ± 2 nM.

As to `Cn1c(=O)oc2ccc(-c3ccc(C[C@@H](C#N)NC(=O)C4CCCCCNC4)c(F)c3)cc21` (single isomer, unassigned) [drawing 500], half-maximal inhibition (IC50) was put at 13.1 ± 3.7 nM.

Compound `Cn1c(=O)oc2ccc(-c3ccc(C[C@@H](C#N)NC(=O)[C@H]4CCCCCNC4)c(F)c3)cc21` (single isomer, unassigned) [drawing 501] showed an IC50 of 148 ± 16 nM.

For the compound `CCO[C@@]1(C)CNC[C@@H](C(=O)N[C@H](C#N)Cc2ccc(-c3ccc4oc(=O)n(C)c4c3)cc2)OC1` (single isomer, unassigned) [drawing 503], the IC50 was greater than 5000 nM.

As for `CCO[C@]1(C)CNC[C@@H](C(=O)N[C@H](C#N)Cc2ccc(-c3ccc4oc(=O)n(C)c4c3)cc2)OC1` (single isomer, unassigned) [drawing 504], the concentration for half-maximal inhibition (IC50) came out at 1640 nM.

For the compound `CO[C@@H]1CCO[C@H](C(=O)N[C@H](C#N)Cc2ccc(-c3ccc4oc(=O)n(C)c4c3)cc2)CNC1` (single isomer, unassigned) [drawing 505], half-maximal inhibition (IC50) required 7.04 nM.

In turn, `Cn1c(=O)oc2ccc(-c3ccc(C[C@@H](C#N)NC(=O)C4CCCCCNC4)cc3)cc21` (stereo partly drawn) [IA] came in with an IC50 of 63.4 nM.

`Cn1c(=O)oc2ccc(-c3ccc(C[C@@H](C#N)NC(=O)[C@@H]4CCCCCNC4)cc3)cc21` [drawing 502] returned a concentration for half-maximal inhibition (IC50) of 629 nM.

The target of a further assay is human DPP1 enzyme (Homo sapiens (Human), UniProt P53634). Briefly: Human DPP1 Enzyme IC50 Assay. It is filed as biochemical. As to conditions: recombinant human DPP1 activated with cathepsin L, H-Gly-Arg-AMC substrate, 10 min pre-incubation at 37° C., MES pH 6.0. As for the experimental part:
Recombinant human DPP1 enzyme (R&D Systems; Minneapolis, MN) was first proteolytically processed into its mature form using recombinant human cathepsin L (R&D Systems) in a buffer consisting of 20 mM citric acid pH 4.5, 150 mM NaCl, 1 mM EDTA and 10 mM DTT. Test articles were applied to activated human DPP1 enzyme in Assay Buffer (25 mM MES pH 6.0, 50 mM NaCl, 5 mM DTT) in a total reaction volume of 125 μL. 25 μL of compound in Assay Buffer plus 5% DMSO was first added to 50 μL of activated human DPP1 enzyme at a concentration of 1 ng/μL and allowed to pre-incubate for 10 minutes at 37° C. after which 50 μL of 1000 μM H-Gly-Arg-AMC substrate (Bachem; St. Torrance, CA) was added, giving final substrate concentration of 400 µM and a final DMSO concentration of 1%. Substrate cleavage was measured for 90 minutes at 37° C., with fluorescence at Excitation/Emission 350/450 nm measured every 5 minutes. DPP1 concentration was interpolated based on its activity relative to a standard curve of activated human recombinant DPP1 enzyme. IC50 values for each compound were calculated via the XLFit (IDBS Version 5.3.1.3) Add-On to Microsoft Excel using the four parameter fit equation y={A+[(B−A)]/[1+((C/x)^D)]}, which appears as equation number 205 (4 Parameter Logistic Model or Sigmoidal Dose-Response Model) in XLFit. Default constraints were used for each Parameter. IC50 was defined as the compound concentration at which 50% of enzyme activity was inhibited when compared to the no-compound control.
As for `Cn1c(=O)oc2ccc(-c3ccc(C[C@@H](C#N)NC(=O)[C@@H]4CNC[C@@](C)(O)CO4)cc3)cc21` (relative stereo) [Compound 2-A, (2S,6R*)—N-[(1S)-1-cyano-2-[4-(3-methyl-2-oxo-2,3-dihydro-1,3-benzoxazol-5-yl)phenyl]ethyl]-6-hydroxy-6-methyl-1,4-oxazepane-2-carboxamide], the IC50 stood at 39.6 nM.

With `CO[C@@]1(C)CNC[C@@H](C(=O)N[C@H](C#N)Cc2ccc(-c3ccc4oc(=O)n(C)c4c3)cc2)OC1` (relative stereo) [Compound 3-A, (2S,6S*)—N-[(1S)-1-cyano-2-[4-(3-methyl-2-oxo-2,3-dihydro-1,3-benzoxazol-5-yl)phenyl]ethyl]-6-methoxy-6-methyl-1,4-oxazepane-2-carboxamide], the IC50 came to 145 nM.

Turning to `CO[C@]1(C)CNC[C@@H](C(=O)N[C@H](C#N)Cc2ccc(-c3ccc4oc(=O)n(C)c4c3)cc2)OC1` (relative stereo) [Compound 3-B, (2S,6R*)—N-[(1S)-1-cyano-2-[4-(3-methyl-2-oxo-2,3-dihydro-1,3-benzoxazol-5-yl)phenyl]ethyl]-6-methoxy-6-methyl-1,4-oxazepane-2-carboxamide], the concentration for half-maximal inhibition (IC50) is 206 nM.
